# Reference: patent US20210324281A1, “FUEL DERIVED FROM RENEWABLE RESOURCES” (priority 2018, published 2021)
# Columns and labels:
# [1] = RapidOxy oxidative stability measurement (DIN EN 16091, 140° C., 700 kPa oxygen); format: physicochemical; details: for oxidative stability of the single, pure component: standard: induction time above 33.3 min, FIG. 8; for oxidative stability standard according to EN 14214: 500 ppm in Plantanol with 1 wt.-% solketal, FIG. 15
# Experimental: In this method, the pressure of a closed, with oxygen filled and afterwards heated sample chamber is measured against time. […] Therefore, the samples are heated up to 140° C. with an oxygen pressure of 700 kPa. […] The incubation time is the period between the start of the experiment and until the pressure dropped by 10% compared to the maximum pressure in the sample chamber. In FIG. 8 etc., this limit is indicated by a dashed line.
# For this purpose, the samples were heated up to 140° C. at 700 kPa in an oxygen atmosphere. Thereafter the device measured the pressure with respect to the time. The measurement automatically stopped once a decrease of the pressure of 10% occurred. The time needed for this decrease by 10% is called “induction time” and represents a characteristic quantity for the oxidative stability of a fuel. The quantity “ppm” (parts per million) in the present experimental examples refers to a molar ratio (n/n), if not stated otherwise.
# [2] = system: Escherichia coli; assay: Modified broth dilution in biphasic biofuel (Plantanol)/water system, turbidity at 600 nm; format: cell-based; details: for effect on bacterial growth compared with Staphylococcus aureus: in Plantanol with solketal; for effect on bacterial growth compared with Staphylococcus aureus / bacterial growth (turbidity of the aqueous phase): FIG. 19; for microbial growth (turbidity of the aqueous phase): FIG. 21
# Source text: (§1) The growth of microbes in the fuel is one of the main problems of biofuels, as set out above. The aim of the experiments was to investigate the bacterial growth in the biphasic biofuel/water system to see how the addition of an antimicrobial additive to the biofuel has an impact on the microbial growth in the aqueous bacteria solution. For this purpose, the so-called “broth dilution” method was modified and applied to the biphasic (biofuel+additive)/(water+bacteria) system.
# (§2) This method represents a standard test for the investigation of bactericidal substances (e.g. antibiotics). At first, bacteria are incorporated in water that contains a nutrient medium (e.g. blood or yeast extracts). The potential antimicrobial agents are then added to the bacteria solution and the mixture is incubated over night at a certain temperature.
# (§3) The concentration of bacteria can be measured by means of photometric spectroscopy as the presence of bacteria in a solution lead to turbidity. The higher the turbidity, the more bacteria are present in the solution. […] In some cases, the turbidity even decreases (=bacteria die).
# (§4) The above-mentioned method was modified and applied to the biofuel/water system. For this purpose, there was one type of gram-negative (Escherichia coli) and gram-positive bacteria (Staphylococcus aureus) incorporated in each aqueous medium. The so-called “LB-medium” (lysogeny broth) was used as the nutrient medium. The biofuel (with and without additive) was then added to the bacteria solution leading to a phase separation of the biofuel (top) and aqueous medium (bottom).
# (§5) The samples were incubated in a so-called incubator shaker, to ensure a good mixing of the two phases. Thereafter, the samples were taken out of the incubator and it was waited until complete phase separation occurred (˜30 minutes). Lastly, the aqueous phase was transferred and measured photometrically at a wavelength of A=600 nm.
# (§6) Thus, the turbidity of the aqueous phase solely arises from the bacteria's presence in the water. Depending on the magnitude of the turbidity, it can be concluded whether and how the addition of a certain compound to the biofuel affects the bacterial growth in the aqueous medium.
# (§7) For this purpose, different concentrations of antimicrobial substances were added to the biofuel and the effect of these substances on the turbidity of the samples was investigated. On the one hand, hydrophobic, biofuel-soluble bactericides were used (Eugenol, Carvacrol) and on the other hand hydrophilic, biofuel-insoluble substances (caffeic acid, gallic acid, ferulic acid) were used. The glycerol derivative solketal was used to make the hydrophilic substances soluble in the biofuel.
# (§8) The chosen concentrations for Grotamar82 and Liqui Moly were the ones recommended by the manufacturer. For both products, there is a recommended concentration for prevention of diesel bug as well as a recommended “shock dosage” in case of an already existing microbial contamination. 1000 ppm of Grotamar82 as well 5000 ppm of the product by Liqui Moly are recommended as a “shock dosage” while 250 ppm and 1000 ppm are recommended to achieve an effective protection against diesel bug.
# (§9) Additionally, formaldehyde was added to the Plantanol as the kinetics of the hydrolysis of MBO (cf. the above scheme) in Grotamar82 were not known. Grotamar82 contains about 20% of MBO, according to the manufacturer. Thus, a complete hydrolysis of the MBO in 250 ppm and 1000 ppm Grotamar82 would result in the production of 50 ppm and 200 ppm of formaldehyde respectively.
# [3] = system: Staphylococcus aureus; assay: as above; format: cell-based; details: for amount needed relative to ferulic acid to achieve the same effect: 10 wt.-% versus 0.25 wt.-% ferulic acid in Plantanol; for absorbance of the aqueous phase after incubation: medium pre-incubation 0.12, FIG. 20
# Source text: as §1, §2, §3, §4, §5, §6, §7, §8, §9
# [4] = Solubilisation of hydrophilic antioxidants in biofuel by glycerol derivatives; format: physicochemical
# Experimental: As a proof of concept, analogous experiments were carried out with the biofuel “Plantanol” from industry. […] The samples were prepared by dissolving the respective antioxidants in solketal.
# [5] = 0.1-0.25 wt.-% in Plantanol, solubilised with solketal, FIG. 18
# [6] = 330 ppm in 63/27/10 biodiesel (FAME)/rapeseed oil/solketal, FIG. 14
# [7] = 333 ppm in 63/27/10 FAME/rapeseed oil/solketal, FIG. 16
smiles,measurement,setting,value
"CC1(C)OCC(CO)O1 (stereo not shown) [solketal, isopropylideneglycerol]","oxidative stability of the single, pure component",[1],oxidised nearly as fast as 2-methylfuran
O=C(O)/C=C/c1ccc(O)c(O)c1 [caffeic acid],effect on bacterial growth compared with Staphylococcus aureus,[2],smaller effect on the E.-coli bacteria than they had on the Staphylococcus aureus
same,bacterial growth (turbidity of the aqueous phase),[3]; [5],distinctly reduced
same,oxidative stability of the biofuel (EN 14214),[1]; [6],enough to make the biofuel fulfil the standard
same,amount of solketal found preferable to solubilize the additive,[4]; 0.1 wt % of additive in Plantanol,up to 10 wt %
"CCCC(=O)OCC(COC(=O)CCC)OC(=O)CCC [Tributyrin, glycerol tributyrate]","oxidative stability of the single, pure component",[1],insensitive toward oxidation
O=c1c(O)c(-c2ccc(O)c(O)c2)oc2cc(O)cc(O)c12 [quercetin],oxidative stability of the biofuel (EN 14214),[1]; [6],enough to make the biofuel fulfil the standard
O=C(O)c1cc(O)c(O)c(O)c1 [gallic acid],effect on bacterial growth compared with Staphylococcus aureus,[2],smaller effect on the E.-coli bacteria than they had on the Staphylococcus aureus
same,bacterial growth (turbidity of the aqueous phase),[3]; [5],distinctly reduced
same,oxidative stability of the biofuel (EN 14214),[1]; [6],enough to make the biofuel fulfil the standard
same,oxidative stability of the biofuel (EN 14214),[1]; [7],stabilization above the minimum of EN 14214
same,"induction time versus concentration, ranking","[1]; solketal system, higher concentrations, FIG. 11",most effective
same,amount of solketal sufficient to solubilize the additive,[4]; 500 ppm of additive in Plantanol,< 0.5 wt %
"CC(C)(C)c1cc(O)ccc1O [TBHQ, 2-tert-butyl hydroquinone, reference compound]",oxidative stability standard according to EN 14214,[1],not reached
OCCc1ccc(O)c(O)c1 [hydroxytyrosol],oxidative stability of the biofuel (EN 14214),[1]; [6],enough to make the biofuel fulfil the standard
same,oxidative stability of the biofuel (EN 14214),[1]; [7],stabilization above the minimum of EN 14214
"Cc1ccc(C(C)C)cc1O [Carvacrol, reference compound]",bacterial growth (turbidity of the aqueous phase),[2]; 10 wt.-% in Plantanol,distinctly reduced it
same,bacterial growth (turbidity of the aqueous phase),"[3]; 2 wt.-% in Plantanol, FIG. 18",no effect on the bacterial growth
same,bacterial growth (turbidity of the aqueous phase),"[3]; 10 wt.-% in Plantanol, FIG. 18",completely inhibited the growth
same,amount needed relative to ferulic acid to achieve the same effect,[3],40 times
"C=CCc1ccc(O)c(OC)c1 [Eugenol, reference compound]",bacterial growth (turbidity of the aqueous phase),[2]; 10 wt.-% in Plantanol,distinctly reduced it
same,bacterial growth (turbidity of the aqueous phase),"[3]; 2 wt.-% in Plantanol, FIG. 18",no effect on the bacterial growth
same,bacterial growth (turbidity of the aqueous phase),"[3]; 10 wt.-% in Plantanol, FIG. 18",completely inhibited the growth
same,amount needed relative to ferulic acid to achieve the same effect,[3],40 times
"Oc1ccc(O)cc1 [hydroquinone, reference compound]",oxidative stability of the biofuel,"[1]; 0.2 wt.-% in solketal system (60 wt.-% FAME, 30 wt.-% rapeseed oil, 10 wt.-% solketal), FIG. 9",distinctly increased
same,oxidative stability of the biofuel,"[1]; 160 ppm in solketal system (60/30/10), FIG. 9",not enough to fulfill the standard
same,oxidative stability of the biofuel (EN 14214),[1]; [6],enough to make the biofuel fulfil the standard
same,oxidative stability standard according to EN 14214,[1],not reached
COc1cc(/C=C/C(=O)O)ccc1O [ferulic acid],microbial growth (turbidity of the aqueous phase),"[2]; 0.1 wt % in solketal, in Plantanol",significantly decreased microbial growth
same,microbial growth (turbidity of the aqueous phase),[2]; 0.25 wt % in Plantanol,No growth of bacteria was observable
same,bacterial growth (turbidity of the aqueous phase),[2]; 0.25 wt.-% in Plantanol,distinctly reduced it
same,microbial growth (turbidity of the aqueous phase),[2]; 0.50 wt % in Plantanol,No growth of bacteria was observable
same,bacterial growth (turbidity of the aqueous phase),"[3]; 0.1 wt % dissolved in solketal, in Plantanol, FIG. 20",drastically decreases
same,absorbance of the aqueous phase after incubation,[3]; 0.25 wt % in solketal/Plantanol,below 0.12
same,bacterial growth (turbidity of the aqueous phase),"[3]; 0.25 wt.-% in Plantanol, FIG. 18",complete inhibition
same,absorbance of the aqueous phase after incubation,[3]; 0.5 wt % in solketal/Plantanol,below 0.12
CCCOC(=O)c1cc(O)c(O)c(O)c1 [propyl gallate],oxidative stability of the biofuel,"[1]; tributyrin system (60 wt.-% FAME, 30 wt.-% rapeseed oil, 10 wt.-% tributyrin), FIG. 12","the higher the concentration of the antioxidant, the better the stability toward oxidation is"
"O=C1O[C@H]([C@@H](O)CO)C(O)=C1O [vitamin C, ascorbic acid]",effect of addition on oxidative stability,"[1]; 167 ppm added to the system containing 333 ppm DHB, FIG. 16",no effect on the overall stability
same,effect of addition on oxidative stability,"[1]; 167 ppm added to the system containing 333 ppm GA, FIG. 16",distinct increase of the oxidative stability
same,effect of addition on oxidative stability,"[1]; 167 ppm added to the system containing 333 ppm HT, FIG. 16",distinct increase of the oxidative stability
